This is an account of results in patent US11739098B2 (BRISTOL-MYERS SQUIBB COMPANY, priority 2017, dated 2023).

What all share (type): cell-based
The target in one experiment is T1, human TLR7 (Homo sapiens, UniProt Q9NYK1).
T1 construct: host or cells: HEK-Blue cells (HEK293-derived reporter line)
T1 sequence (Q9NYK1 27-1049): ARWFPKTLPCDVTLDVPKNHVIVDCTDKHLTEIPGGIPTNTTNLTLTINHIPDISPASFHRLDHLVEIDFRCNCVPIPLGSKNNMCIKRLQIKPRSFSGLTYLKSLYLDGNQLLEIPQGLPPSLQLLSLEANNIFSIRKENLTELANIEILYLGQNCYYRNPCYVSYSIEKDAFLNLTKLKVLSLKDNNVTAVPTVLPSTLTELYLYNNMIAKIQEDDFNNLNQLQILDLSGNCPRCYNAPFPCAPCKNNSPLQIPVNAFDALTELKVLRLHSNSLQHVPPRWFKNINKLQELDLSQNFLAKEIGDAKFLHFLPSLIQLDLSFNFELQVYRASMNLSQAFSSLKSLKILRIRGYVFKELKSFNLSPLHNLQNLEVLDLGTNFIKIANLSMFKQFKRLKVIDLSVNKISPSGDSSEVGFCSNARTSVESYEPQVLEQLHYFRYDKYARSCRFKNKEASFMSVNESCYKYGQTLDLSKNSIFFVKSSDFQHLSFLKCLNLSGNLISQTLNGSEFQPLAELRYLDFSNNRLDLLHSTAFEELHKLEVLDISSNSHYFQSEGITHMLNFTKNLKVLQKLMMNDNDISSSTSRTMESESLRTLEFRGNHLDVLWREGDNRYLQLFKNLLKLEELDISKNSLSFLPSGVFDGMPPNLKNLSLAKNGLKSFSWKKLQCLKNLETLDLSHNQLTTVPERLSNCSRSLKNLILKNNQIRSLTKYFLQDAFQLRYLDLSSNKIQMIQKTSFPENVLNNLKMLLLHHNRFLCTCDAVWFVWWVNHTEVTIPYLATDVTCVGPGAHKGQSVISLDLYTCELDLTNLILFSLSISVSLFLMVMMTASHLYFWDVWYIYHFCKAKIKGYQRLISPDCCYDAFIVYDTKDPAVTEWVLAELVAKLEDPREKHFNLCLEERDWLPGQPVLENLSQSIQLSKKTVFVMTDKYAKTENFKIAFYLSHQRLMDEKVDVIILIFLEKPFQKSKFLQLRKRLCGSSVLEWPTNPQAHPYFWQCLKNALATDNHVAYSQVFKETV
Put plainly: TLR7 inhibition reporter assay (HEK-Blue cells, SEAP reporter, gardiquimod stimulation). As to conditions: HEK-Blue cells overexpressing human TLR7, SEAP reporter, gardiquimod 7.5 μM. The procedure, abridged:
(§1)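 Read-out is SEAP activity in HEK-Blue detection medium after 22 h at 37 °C, converted to percent inhibition against agonist-plus-DMSO and reference-inhibitor controls. Cells saw compound (0.05 nM–50 μM, 30 min, room temperature) before gardiquimod 7.5 μM, R848 15.9 μM or ODN2006 5 nM for TLR7, TLR8 and TLR9, respectively.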
(Reporter assays use an easily measured gene product as a stand-in for the process of interest.)

A further experiment deals with T2, human TLR8 (Homo sapiens, UniProt Q9NR97).
T2 construct: host or cells: HEK-Blue cells (HEK293-derived reporter line)
T2 sequence (Q9NR97 27-1041): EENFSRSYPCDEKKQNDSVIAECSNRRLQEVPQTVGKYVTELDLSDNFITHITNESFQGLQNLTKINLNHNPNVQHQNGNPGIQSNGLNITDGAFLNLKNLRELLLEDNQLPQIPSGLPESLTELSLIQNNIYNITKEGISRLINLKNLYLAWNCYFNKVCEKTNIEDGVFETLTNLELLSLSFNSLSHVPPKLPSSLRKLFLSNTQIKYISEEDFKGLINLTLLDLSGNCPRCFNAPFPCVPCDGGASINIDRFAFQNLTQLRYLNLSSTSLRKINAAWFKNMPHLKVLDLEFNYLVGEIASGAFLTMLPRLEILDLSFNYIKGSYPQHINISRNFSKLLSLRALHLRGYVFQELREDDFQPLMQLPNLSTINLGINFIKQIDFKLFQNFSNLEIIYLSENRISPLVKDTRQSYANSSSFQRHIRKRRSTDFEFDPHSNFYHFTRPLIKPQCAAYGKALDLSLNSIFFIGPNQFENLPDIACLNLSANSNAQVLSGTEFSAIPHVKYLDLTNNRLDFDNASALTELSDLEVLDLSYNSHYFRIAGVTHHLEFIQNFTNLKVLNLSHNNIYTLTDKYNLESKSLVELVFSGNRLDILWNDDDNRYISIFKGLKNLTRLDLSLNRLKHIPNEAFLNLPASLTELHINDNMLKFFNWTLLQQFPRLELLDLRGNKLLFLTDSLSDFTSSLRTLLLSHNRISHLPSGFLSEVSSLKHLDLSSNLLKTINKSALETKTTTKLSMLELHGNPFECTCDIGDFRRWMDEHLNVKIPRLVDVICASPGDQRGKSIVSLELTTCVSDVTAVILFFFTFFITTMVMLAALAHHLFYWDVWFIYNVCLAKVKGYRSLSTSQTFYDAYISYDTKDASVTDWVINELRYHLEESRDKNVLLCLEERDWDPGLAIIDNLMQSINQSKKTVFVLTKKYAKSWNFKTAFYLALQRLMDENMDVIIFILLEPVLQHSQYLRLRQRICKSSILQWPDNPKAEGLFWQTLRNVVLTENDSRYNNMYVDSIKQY
Nature of the experiment: TLR8 inhibition reporter assay (HEK-Blue cells, SEAP reporter, R848 stimulation). As to conditions: HEK-Blue cells overexpressing human TLR8, SEAP reporter, R848 15.9 μM. In short, it runs like this: as §1

A further experiment has as its target T3, human TLR9 (Homo sapiens, UniProt Q9NR96).
T3 construct: host or cells: HEK-Blue cells (HEK293-derived reporter line)
T3 sequence (Q9NR96 26-1032): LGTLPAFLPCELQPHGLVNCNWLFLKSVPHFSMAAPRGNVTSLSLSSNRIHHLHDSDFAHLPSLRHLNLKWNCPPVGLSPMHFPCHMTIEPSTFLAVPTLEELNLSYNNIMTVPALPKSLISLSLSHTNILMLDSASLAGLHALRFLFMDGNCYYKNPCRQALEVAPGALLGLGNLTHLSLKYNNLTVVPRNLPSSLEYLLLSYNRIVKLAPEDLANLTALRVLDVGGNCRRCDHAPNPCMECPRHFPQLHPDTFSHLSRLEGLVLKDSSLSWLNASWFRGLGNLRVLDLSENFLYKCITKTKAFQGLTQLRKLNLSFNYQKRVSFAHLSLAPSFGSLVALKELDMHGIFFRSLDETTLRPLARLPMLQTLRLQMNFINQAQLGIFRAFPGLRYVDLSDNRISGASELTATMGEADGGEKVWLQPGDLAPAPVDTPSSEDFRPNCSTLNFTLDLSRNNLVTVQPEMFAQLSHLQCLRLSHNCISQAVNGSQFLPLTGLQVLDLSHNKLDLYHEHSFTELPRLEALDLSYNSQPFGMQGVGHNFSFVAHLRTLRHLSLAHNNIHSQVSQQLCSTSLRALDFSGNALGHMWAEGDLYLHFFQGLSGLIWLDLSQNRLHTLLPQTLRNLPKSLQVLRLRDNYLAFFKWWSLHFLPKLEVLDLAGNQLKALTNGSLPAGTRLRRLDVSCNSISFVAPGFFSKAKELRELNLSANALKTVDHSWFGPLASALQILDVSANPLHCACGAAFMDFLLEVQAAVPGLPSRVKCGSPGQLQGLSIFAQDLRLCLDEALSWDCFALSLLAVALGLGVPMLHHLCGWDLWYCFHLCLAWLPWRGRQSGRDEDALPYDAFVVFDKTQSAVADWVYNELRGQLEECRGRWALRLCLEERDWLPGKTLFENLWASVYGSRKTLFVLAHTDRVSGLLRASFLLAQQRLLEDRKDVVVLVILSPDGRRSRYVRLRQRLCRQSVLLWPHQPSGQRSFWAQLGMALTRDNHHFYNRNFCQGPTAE
Put plainly: TLR9 inhibition reporter assay (HEK-Blue cells, SEAP reporter, ODN2006 stimulation). The note with it: HEK-Blue cells overexpressing human TLR9, SEAP reporter, ODN2006 5 nM. The procedure, abridged:
as §1

For orientation: IC50 means the point on the concentration scale where inhibition reaches its midpoint.

On to `CC(C)c1c(-c2cn(C)c3ncncc23)[nH]c2ccc(C3CCN(C(=O)CN(C)C)CC3)cc12` [Example 456, 2-(dimethylamino)-1-(4-(3-isopropyl-2-(7-methyl-7H-pyrrolo[2,3-d]pyrimidin-5-yl)-1H-indol-5-yl)piperidin-1-yl)ethan-1-one], for which the IC50 against human TLR7 was under 0.1 µM; on human TLR8, under 0.1 µM; at human TLR9, 1 to 50 µM.

For `CC(C)c1c(-c2ccnc3[nH]ncc23)[nH]c2ccc(C3CCN(C(=O)C4CCNCC4)CC3)cc12` [Example 649, (4-(3-isopropyl-2-(1H-pyrazolo[3,4-b]pyridin-4-yl)-1H-indol-5-yl)piperidin-1-yl)(piperidin-4-yl)methanone], the IC50 against human TLR7 was 0.1 to 1 µM; against human TLR8 it was 0.1 to 1 µM; against human TLR9, 1 to 50 µM.

Take `Cc1cnc2ccc(-c3[nH]c4ccc(C5CCNCC5)cc4c3C(C)C)cn12` [Example 114, 6-(3-isopropyl-5-(piperidin-4-yl)-1H-indol-2-yl)-3-methylimidazo[1,2-a]pyridine]: the IC50 against human TLR7 is under 0.1 µM; on human TLR8 it was 0.1 to 1 µM; on human TLR9, 0.1 to 1 µM.

In the case of `CCc1c(-c2ccnc3[nH]nc(CC)c23)[nH]c2ccc(C3CCNCC3)cc12` [Example 224, 3-ethyl-4-(3-ethyl-5-(piperidin-4-yl)-1H-indol-2-yl)-1H-pyrazolo[3,4-b]pyridine], the half-inhibitory concentration (IC50) against human TLR7 was 0.1 to 1 µM; on human TLR8 it was under 0.1 µM; against human TLR9, 0.1 to 1 µM.

Take `CNC(=O)CN1CCC(c2ccc3[nH]c(-c4cc(C)c5oc(=O)[nH]c5c4)c(C(C)C)c3c2)CC1` [Example 337, 2-(4-(3-isopropyl-2-(7-methyl-2-oxo-2,3-dihydrobenzo[d]oxazol-5-yl)-1H-indol-5-yl)piperidin-1-yl)-N-methylacetamide]: the IC50 on human TLR7 is 0.1 to 1 µM; against human TLR8 it was 0.1 to 1 µM; against human TLR9 it was 1 to 50 µM.

On to `CNCCN1CCC(c2ccc3[nH]c(-c4ccc5[nH]ccc5c4)c(C)c3c2)CC1` [Example 667, N-methyl-2-(4-(3-methyl-1H,1′H-[2,5′-biindol]-5-yl)piperidin-1-yl)ethan-1-amine], for which the figures for the IC50 against human TLR7, on human TLR8 and on human TLR9 were 1 to 50 µM, 1 to 50 µM and 0.1 to 1 µM, respectively.

Regarding `CCc1c(-c2ccnc3[nH]ncc23)[nH]c2ccc(C3CCN(Cc4cncn4C)CC3)cc12` [Example 911, 4-(3-ethyl-5-(1-((1-methyl-1H-imidazol-5-yl)methyl)piperidin-4-yl)-1H-indol-2-yl)-1H-pyrazolo[3,4-b]pyridine], the IC50 against human TLR7 is 0.1 to 1 µM; against human TLR8, under 0.1 µM; at human TLR9, 1 to 50 µM.

Consider `CNCCN1CCC(c2ccc3[nH]c(-c4ccc5nccn5c4)c(CC(F)F)c3c2)CC1` [Example 681, 2-(4-(3-(2,2-difluoroethyl)-2-(imidazo[1,2-a]pyridin-6-yl)-1H-indol-5-yl)piperidin-1-yl)-N-methylethan-1-amine], for which the IC50 on human TLR7, at human TLR8 and on human TLR9 was under 0.1 µM in each case.

Consider `CCc1c(-c2c[nH]c3ncncc23)[nH]c2ccc(C3CCNCC3)cc12` [Example 241, 5-(3-ethyl-5-(piperidin-4-yl)-1H-indol-2-yl)-7H-pyrrolo[2,3-d]pyrimidine], for which the IC50 on human TLR7 is under 0.1 µM; against human TLR8 it was under 0.1 µM; on human TLR9, 1 to 50 µM.

Regarding `CC(C)c1c(-c2cnc3[nH]ncc3c2)[nH]c2ccc(C3CCN(C(=O)CN(C)C)CC3)cc12` [Example 562, 2-(dimethylamino)-1-(4-(3-isopropyl-2-(1H-pyrazolo[3,4-b]pyridin-5-yl)-1H-indol-5-yl)piperidin-1-yl)ethan-1-one], the IC50 is under 0.1 µM against human TLR7, under 0.1 µM at human TLR8 and 1 to 50 µM on human TLR9.

For the molecule `CC(C)c1c(-c2ccn3nccc3c2)[nH]c2ccc(C3CCN(C(=O)CN(C)C)CC3)cc12` [Example 542, 2-(dimethylamino)-1-(4-(3-isopropyl-2-(pyrazolo[1,5-a]pyridin-5-yl)-1H-indol-5-yl)piperidin-1-yl)ethan-1-one], the concentration for half-maximal inhibition (IC50) at human TLR7 is under 0.1 µM; on human TLR8 it was 0.1 to 1 µM; on human TLR9 it was 1 to 50 µM.

As to `CC(C)c1c(-c2cn(C)c3ncccc23)[nH]c2ccc(C3CCN(Cc4cnn[nH]4)CC3)cc12` [Example 877, 3-(5-(1-((1H-1,2,3-triazol-5-yl)methyl)piperidin-4-yl)-3-isopropyl-1H-indol-2-yl)-1-methyl-1H-pyrrolo[2,3-b]pyridine], the IC50 at human TLR7 is under 0.1 µM; against human TLR8, under 0.1 µM; on human TLR9, 1 to 50 µM.

With `CC(C)c1c(-c2ccc3cnnn3c2)[nH]c2ccc(C3CCN(C4CCOCC4)CC3)cc12` [Example 695, 6-(3-isopropyl-5-(1-(tetrahydro-2H-pyran-4-yl)piperidin-4-yl)-1H-indol-2-yl)-[1,2,3]triazolo[1,5-a]pyridine], the values for the IC50 on human TLR7, at human TLR8 and on human TLR9 were 0.1 to 1 µM, under 0.1 µM and 0.1 to 1 µM, respectively.
